Assay results reported in patent US20230141603A1, “BENZODIAZEPINE DERIVATIVES AS GABA A GAMMA1 PAM” (Hoffmann-La Roche Inc., priority 2021, published 2023).
pKi: −log10 of the molar value.

Target: T1, h-GABAA α5β2γ1 (Homo sapiens, UniProt P31644+Q8N1C3)
T1 construct: expressed in transfected cells; host or cells: HEK293F cells (ThermoFisher R79007), membranes
T1 sequence (P31644 32-462): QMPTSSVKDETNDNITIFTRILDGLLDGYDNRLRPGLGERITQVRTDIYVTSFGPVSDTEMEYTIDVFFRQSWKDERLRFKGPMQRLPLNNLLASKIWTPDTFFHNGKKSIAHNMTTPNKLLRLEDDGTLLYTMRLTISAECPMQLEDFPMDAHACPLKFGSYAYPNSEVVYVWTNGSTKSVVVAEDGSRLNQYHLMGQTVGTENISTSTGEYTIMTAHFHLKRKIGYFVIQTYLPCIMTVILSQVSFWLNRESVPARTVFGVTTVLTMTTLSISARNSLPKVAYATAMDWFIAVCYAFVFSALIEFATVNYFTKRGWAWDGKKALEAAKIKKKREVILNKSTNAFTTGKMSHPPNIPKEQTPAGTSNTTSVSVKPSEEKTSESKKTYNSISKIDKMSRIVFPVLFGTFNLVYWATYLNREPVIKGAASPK
T1 sequence (P47870 25-512 partner limits assumed): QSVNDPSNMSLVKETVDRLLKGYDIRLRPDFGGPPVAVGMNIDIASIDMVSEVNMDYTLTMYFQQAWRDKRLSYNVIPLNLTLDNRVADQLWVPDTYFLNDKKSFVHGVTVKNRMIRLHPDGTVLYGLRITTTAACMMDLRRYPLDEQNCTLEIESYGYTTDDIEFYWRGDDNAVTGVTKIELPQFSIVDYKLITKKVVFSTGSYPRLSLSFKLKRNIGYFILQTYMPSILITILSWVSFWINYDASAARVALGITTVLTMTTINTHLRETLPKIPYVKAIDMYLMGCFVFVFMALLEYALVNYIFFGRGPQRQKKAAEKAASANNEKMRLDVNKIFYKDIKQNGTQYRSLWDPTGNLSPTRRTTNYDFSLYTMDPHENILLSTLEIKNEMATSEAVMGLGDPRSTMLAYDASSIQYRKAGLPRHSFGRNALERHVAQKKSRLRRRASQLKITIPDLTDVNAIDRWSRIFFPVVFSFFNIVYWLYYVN
T1 sequence (Q8N1C3 36-465): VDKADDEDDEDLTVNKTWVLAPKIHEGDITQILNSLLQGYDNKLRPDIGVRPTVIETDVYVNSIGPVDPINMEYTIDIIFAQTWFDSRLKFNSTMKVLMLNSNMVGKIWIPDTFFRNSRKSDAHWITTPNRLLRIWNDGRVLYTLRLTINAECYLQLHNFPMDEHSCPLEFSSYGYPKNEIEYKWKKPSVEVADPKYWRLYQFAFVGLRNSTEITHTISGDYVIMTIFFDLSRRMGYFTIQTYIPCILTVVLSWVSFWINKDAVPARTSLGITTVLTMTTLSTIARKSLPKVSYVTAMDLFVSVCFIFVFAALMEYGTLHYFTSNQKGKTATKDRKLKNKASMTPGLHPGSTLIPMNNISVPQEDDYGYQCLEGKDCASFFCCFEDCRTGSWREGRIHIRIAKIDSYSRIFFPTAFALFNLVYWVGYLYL
Experiment: Radioligand binding assay, [3H]RO7239181 competition, HEK293F membranes
Procedure: The affinity of compounds at GABAA γ1 subunit-containing receptors was measured by competition for [^3H]RO7239181 (67.3 Ci/mmol; Roche) binding to membranes from HEK293F cells (ThermoFisher R79007) expressing human (transiently transfected) receptors of composition […], α2β2γ1, α1β2γ1. For better protein expression of the α2 subunit-containing receptors, the 28 amino acid long signal peptide (Met1 to Ala28) of the human GABAA α2 subunit was substituted by the 31 amino acid long signal peptide (Met1 to Ser31) of human GABAA α5 subunit.
Harvested pellets from HEK293F cells expressing the different GABAA receptor subtypes were resuspended in Mannitol Buffer pH 7.2-7.4 (Mannitol 0.29M, Triethylamine 10 mM, Acetic acid 10 mM, EDTA 1 mM plus protease inhibitors (20 tablets Complete, Roche Diagnostics Cat. No. 05 056 489 001 per liter)), washed two times and then resuspended at 1:10 to 1:15 dilution in the same buffer. Cell disruption was performed by stirring the suspension in a Parr vessel #4637 at 435 psi for 15 minutes, and then the suspensions were centrifuged at 1000×g for 15 minutes at 4° C. (Beckman Avanti J-HC; rotor JS-4.2). The supernatant (S1) was transferred in a 21 Schott flask and the pellet (P1) was resuspended with Mannitol Buffer up to 175 ml. The resuspended pellet was transferred into a 250 ml Corning centrifugal beaker and centrifuged at 1500×g for 10 minutes at 4° C. (Beckman Avanti J-HC; rotor JS-4.2). The supernatant (S1) was then transferred in the 21 Schott flask and the pellet was discarded. The supernatants (S1) were centrifuged in 500 ml Beckman polypropylene centrifugal beaker at 15′000×g for 30 minutes at 4° C. (Beckman Avanti J-20 XP; rotor JLA-10.500). The pellet (P2) was resuspended with Mannitol Buffer 1:1 and frozen at −80° C. The supernatant (S2) was centrifuged in 100 ml Beckman polypropylene centrifugal tubes at 48000×g for 50 minutes at 4° C. (Beckman Avanti J-20 XP; rotor JA-18). The supernatant (S3) was discarded and the pellet (P3) was resuspended with 1:1 Mannitol Buffer. The P2 and P3 protein concentration was determined with the BIORAD Standard assay method with bovine serum albumin as standard and measured on the NANO-Drop 1000. The membrane suspension was aliquots (500 μl per tube) and stored at −80° C. until required. Membrane homogenates were resuspended and polytronised (Polytron PT1200E Kinematica AG) in Potassium Phosphate 10 mM, KCl 100 mM binding buffer at pH 7.4 to a final assay concentration determined with a previous experiment.
Radioligand binding assays were carried out in a volume of 200 μL (96-well plates) which contained 100 μL of cell membranes, [^3H]RO7239181 at a concentration of 1.5 nM (α5β2γ1) or 20-30 nM (α1β2γ1, α2β2γ1) and the test compound in the range of [0.3-10000]×10^−9 M. Nonspecific binding was defined by 10×10^−6 (α5β2γ1) and 30×10^−6 M RO7235136 and typically represented less than 5% (α5β2γ1) and less than 20% (α1β2γ1, α2β2γ1) of the total binding. Assays were incubated to equilibrium for 1 hour at 4° C. and then, membranes were filtered onto unifilter (96-well white microplate with bonded GF/C filters preincubated 20-50 minutes in 0.3% Polyethylenimine) with a Filtermate 196 harvester (Packard BioScience) and washed 4 times with cold Potassium Phosphate 10 mM pH 7.4, KCl 100 mM binding buffer. After drying, filter-retained radioactivity was detected by liquid scintillation counting. Ki values were calculated using Excel-Fit (Microsoft) and are the means of two determinations.

SMILES	pKi
Cc1ccc2c(c1Cl)C(c1c(F)cccc1F)=NCc1nnc(-c3cccnn3)n1-2 [Example 48, 7-chloro-6-(2,6-difluorophenyl)-8-methyl-1-pyridazin-3-yl-4H-[1,2,4]triazolo[4,3-a][1,4]benzodiazepine]	8.96
Cc1ccc2c(c1Cl)C(c1c(F)cccc1F)=NCc1nnc(-c3ccncn3)n1-2 [Example 49, 7-chloro-6-(2,6-difluorophenyl)-8-methyl-1-pyrimidin-4-yl-4H-[1,2,4]triazolo[4,3-a][1,4]benzodiazepine]	8.77
Cc1nnc2n1-c1ccc(Br)c(Cl)c1C(c1c(F)cccc1Cl)=NC2 [Example 50, 8-bromo-7-chloro-6-(2-chloro-6-fluoro-phenyl)-1-methyl-4H-[1,2,4]triazolo[4,3-a][1,4]benzodiazepine]	9.00
Fc1cccnc1C1=NCc2nnc(-c3cccnn3)n2-c2ccc(Cl)c(Cl)c21 [Example 54, 7,8-dichloro-6-(3-fluoro-2-pyridyl)-1-pyridazin-3-yl-4H-[1,2,4]triazolo[4,3-a][1,4]benzodiazepine]	8.42
Fc1cccnc1C1=NCc2nnc(-c3ccncn3)n2-c2ccc(Cl)c(Cl)c21 [Example 55, 7,8-dichloro-6-(3-fluoro-2-pyridyl)-1-pyrimidin-4-yl-4H-[1,2,4]triazolo[4,3-a][1,4]benzodiazepine]	8.26
COc1ccc2c(c1Cl)C(c1c(F)cccc1F)=NCc1nnc(-c3cccnn3)n1-2 [Example 57, 7-chloro-6-(2,6-difluorophenyl)-8-methoxy-1-pyridazin-3-yl-4H-[1,2,4]triazolo[4,3-a][1,4]benzodiazepine]	8.34
Cn1cc(-c2nnc3n2-c2ccc(Cl)c(Cl)c2C(c2ncccc2F)=NC3)cn1 [Example 58, 7,8-dichloro-6-(3-fluoro-2-pyridyl)-1-(1-methylpyrazol-4-yl)-4H-[1,2,4]triazolo[4,3-a][1,4]benzodiazepine]	8.44
O=c1[nH]nc2n1-c1ccc(Cl)c(Cl)c1C(c1ncccc1F)=NC2 [Example 59, 7,8-dichloro-6-(3-fluoro-2-pyridyl)-2,4-dihydro-[1,2,4]triazolo[4,3-a][1,4]benzodiazepin-1-one]	8.23
Fc1cccnc1C1=NCc2nncn2-c2ccc(Cl)c(Cl)c21 [Example 60, 7,8-dichloro-6-(3-fluoro-2-pyridyl)-4H-[1,2,4]triazolo[4,3-a][1,4]benzodiazepine]	8.12
COc1ccc2c(c1Cl)C(c1c(F)cccc1F)=NCc1nnc(-c3ccncn3)n1-2 [Example 61, 7-chloro-6-(2,6-difluorophenyl)-8-methoxy-1-pyrimidin-4-yl-4H-[1,2,4]triazolo[4,3-a][1,4]benzodiazepine]	8.38
COc1ccc2c(c1Cl)C(c1c(F)cccc1F)=NCc1nnc(-c3cccnc3)n1-2 [Example 62, 7-chloro-6-(2,6-difluorophenyl)-8-methoxy-1-(3-pyridyl)-4H-[1,2,4]triazolo[4,3-a][1,4]benzodiazepine]	8.40
Fc1cccnc1C1=NCc2nnc(C3CC3)n2-c2ccc(Cl)c(Cl)c21 [Example 65, 7,8-dichloro-1-cyclopropyl-6-(3-fluoro-2-pyridyl)-4H-[1,2,4]triazolo[4,3-a][1,4]benzodiazepine]	8.11
Fc1cccnc1C1=NCc2nnc(-c3ccncn3)n2-c2ccc(C(F)(F)F)c(Cl)c21 [Example 69, 7-chloro-6-(3-fluoro-2-pyridyl)-1-pyrimidin-4-yl-8-(trifluoromethyl)-4H-[1,2,4]triazolo[4,3-a][1,4]benzodiazepine]	8.15
Cn1cc(-c2nnc3n2-c2ccc(C(F)(F)F)c(Cl)c2C(c2ncccc2F)=NC3)cn1 [Example 70, 7-chloro-6-(3-fluoro-2-pyridyl)-1-(1-methylpyrazol-4-yl)-8-(trifluoromethyl)-4H-[1,2,4]triazolo[4,3-a][1,4]benzodiazepine]	8.17
Cc1nnc2n1-c1ccc(Cl)c(Cl)c1C(c1ncccc1F)=NC2 [Example 71, 7,8-dichloro-6-(3-fluoro-2-pyridyl)-1-methyl-4H-[1,2,4]triazolo[4,3-a][1,4]benzodiazepine]	8.24
Fc1cccnc1C1=NCc2nnc(-c3cccnn3)n2-c2ccc(C(F)(F)F)c(Cl)c21 [Example 72, 7-chloro-6-(3-fluoro-2-pyridyl)-1-pyridazin-3-yl-8-(trifluoromethyl)-4H-[1,2,4]triazolo[4,3-a][1,4]benzodiazepine]	8.27
Fc1cccnc1C1=NCc2nnc(C3CC3)n2-c2ccc(Br)c(Cl)c21 [Example 77, 8-bromo-7-chloro-1-cyclopropyl-6-(3-fluoro-2-pyridyl)-4H-[1,2,4]triazolo[4,3-a][1,4]benzodiazepine]	8.55
Cc1nnc2n1-c1ccc(C(F)(F)F)c(Cl)c1C(c1ncccc1F)=NC2 [Example 78, 7-chloro-6-(3-fluoro-2-pyridyl)-1-methyl-8-(trifluoromethyl)-4H-[1,2,4]triazolo[4,3-a][1,4]benzodiazepine]	8.11
COc1ccc2c(c1Cl)C(c1c(F)cccc1F)=NCc1nnc(C3CC3)n1-2 [Example 79, 7-chloro-1-cyclopropyl-6-(2,6-difluorophenyl)-8-methoxy-4H-[1,2,4]triazolo[4,3-a][1,4]benzodiazepine]	8.17
COc1nnc2n1-c1ccc(Cl)c(Cl)c1C(c1c(F)cccc1F)=NC2 [Example 90, 7,8-dichloro-6-(2,6-difluorophenyl)-1-methoxy-4H-[1,2,4]triazolo[4,3-a][1,4]benzodiazepine]	9.00
